These results are taken from ChEMBL document CHEMBL1126058, “Development of potent and selective CCK-A receptor agonists from Boc-CCK-4: tetrapeptides containing Lys(N epsilon)-amide residues” (J Med Chem, 1992).

For experiment [1], the species on record is Cavia porcellus. In words: Stimulation of amylase release in guinea pig pancreas. It is filed as functional.
For experiment [2], the species on record is Cavia porcellus. Description: Hydrolysis of phosphoinositide (PI) relative to maximal response elicited by CCK-8 in guinea pig pancreas. The experiment is classed as functional.
Experiment [3] has as its target T1, Cholecystokinin receptor type A (Cavia porcellus, UniProt Q63931).
T1 sequence (Q63931 whole entry): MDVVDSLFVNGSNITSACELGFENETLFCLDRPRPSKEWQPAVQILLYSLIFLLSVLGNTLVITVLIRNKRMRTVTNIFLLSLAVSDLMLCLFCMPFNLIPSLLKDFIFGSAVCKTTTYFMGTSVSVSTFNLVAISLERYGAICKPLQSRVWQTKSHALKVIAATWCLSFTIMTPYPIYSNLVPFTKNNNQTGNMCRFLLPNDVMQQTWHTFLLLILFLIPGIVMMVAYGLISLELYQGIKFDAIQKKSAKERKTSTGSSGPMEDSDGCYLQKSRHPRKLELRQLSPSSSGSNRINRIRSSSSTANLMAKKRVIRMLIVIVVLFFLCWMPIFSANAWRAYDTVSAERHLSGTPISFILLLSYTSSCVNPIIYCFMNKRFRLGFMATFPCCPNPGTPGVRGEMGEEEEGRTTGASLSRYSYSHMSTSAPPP
In words: Inhibition of specific binding of [125I]BH-CCK-8 in guinea pig pancreas.

Where a SMILES comes first, the peptide text is derived from it. [ ]: non-standard residue; d: D form. The star is where a group is joined. X13 = O=C(c1ccc2cc(OS(=O)(=O)O)ccc2c1)*; X23 = O=C(/C=C/c1ccc(OS(=O)(=O)O)cc1)*; X15 = O=C(/C=C\c1ccc(C(F)(F)F)cc1)*; X20 = CC(=O)Oc1ccc2cc(C(=O)*)ccc2c1; X22 = O=C(CCc1cccc(OS(=O)(=O)O)c1)*; X17 = COc1ccc(/C=C\C(=O)*)c(OC)c1; X24 = O=C(/C=C/c1c[nH]c2ccccc12)*; X26 = O=C(/C=C\c1ccc(Cl)c(Cl)c1)*; NMeF = CN[C@@H](Cc1ccccc1)C(=O)O; X10 = O=C(/C=C\c1ccc(Cl)cc1Cl)*; X14 = O=C(c1cc2cc(O)ccc2[nH]1)*; X7 = CN(C)c1ccc(/C=C\C(=O)*)cc1; X8 = COc1ccc2[nH]c(C(=O)*)cc2c1; X12 = O=C(c1cnc2cccc(O)c2c1)*; X21 = O=C(/C=C\c1ccc(Br)cc1)*; X25 = COc1ccc(/C=C\C(=O)*)cc1; X11 = O=C(/C=C\c1ccc(O)cc1)*; X18 = O=C(c1cc2ccccc2[nH]1)*; X16 = O=C(/C=C\c1ccccc1O)*; X19 = O=C(/C=C\c1ccccc1)*; X9 = O=C(/C=C/c1cccs1)*; Boc = CC(C)(C)OC(=O)*

As to `CN(C)c1ccc(/C=C\C(=O)NCCCC[C@H](NC(=O)[C@H](Cc2c[nH]c3ccccc23)NC(=O)OC(C)(C)C)C(=O)N[C@@H](CC(=O)O)C(=O)N[C@@H](Cc2ccccc2)C(N)=O)cc1` (Boc-WK(X7)DF-NH2), in the experiment listed under Cavia porcellus [1], a half-maximal effect (EC50) was put at 0.017 µM. The Max in the experiment filed under Cavia porcellus [2] is 49%. Further, the concentration for half-maximal inhibition (IC50) (commonly the concentration that inhibits the measured activity by half) in experiment [3] was determined as 0.12 µM.

As for `COc1ccc2[nH]c(C(=O)NCCCC[C@H](NC(=O)[C@H](Cc3c[nH]c4ccccc34)NC(=O)OC(C)(C)C)C(=O)N[C@@H](CC(=O)O)C(=O)N[C@@H](Cc3ccccc3)C(N)=O)cc2c1` (Boc-WK(X8)DF-NH2), the concentration for a half-maximal effect (EC50) (commonly the concentration giving half of the maximal effect) in the experiment listed under Cavia porcellus [1] stood at 0.016 µM. For the same compound, the Max in the experiment filed under Cavia porcellus [2] is 21%. The same compound returned a concentration for half-maximal inhibition (IC50) in experiment [3] of 0.052 µM.

In the experiment filed under Cavia porcellus [1], `CC(C)(C)OC(=O)N[C@@H](Cc1c[nH]c2ccccc12)C(=O)N[C@@H](CCCCNC(=O)/C=C/c1cccs1)C(=O)N[C@@H](CC(=O)O)C(=O)N[C@@H](Cc1ccccc1)C(N)=O` (Boc-WK(X9)DF-NH2) had an EC50 of 0.02 µM. In the experiment listed under Cavia porcellus [2], this compound displayed a Max of 66%. Also, the 50% inhibitory concentration (IC50) in experiment [3] amounted to 0.05 µM.

As to `CC(C)(C)OC(=O)N[C@@H](Cc1c[nH]c2ccccc12)C(=O)N[C@@H](CCCCNC(=O)/C=C\c1ccc(Cl)cc1Cl)C(=O)N[C@@H](CC(=O)O)C(=O)N[C@@H](Cc1ccccc1)C(N)=O` (Boc-WK(X10)DF-NH2), the EC50 in the experiment filed under Cavia porcellus [1] was 0.09 µM. The Max in the experiment listed under Cavia porcellus [2] came out at 86%. Further, in experiment [3], the IC50 is 0.13 µM.

`CC(C)(C)OC(=O)N[C@@H](Cc1c[nH]c2ccccc12)C(=O)N[C@@H](CCCCNC(=O)/C=C\c1ccc(O)cc1)C(=O)N[C@@H](CC(=O)O)C(=O)N[C@@H](Cc1ccccc1)C(N)=O` (Boc-WK(X11)DF-NH2) displayed a half-maximal effective concentration (EC50) in the experiment listed under Cavia porcellus [1] of 0.0039 µM. In addition, the Max in the experiment listed under Cavia porcellus [2] is on record as 76%. In addition, the half-inhibitory concentration (IC50) in experiment [3] is 0.016 µM.

For the compound `CC(C)(C)OC(=O)N[C@@H](Cc1c[nH]c2ccccc12)C(=O)N[C@@H](CCCCNC(=O)c1cnc2cccc(O)c2c1)C(=O)N[C@@H](CC(=O)O)C(=O)N[C@@H](Cc1ccccc1)C(N)=O` (Boc-WK(X12)DF-NH2), it took 0.0023 µM to reach a half-maximal effect in the experiment filed under Cavia porcellus [1] (EC50). In addition, the Max in the experiment listed under Cavia porcellus [2] is recorded as 45%. The same compound showed an IC50 in experiment [3] of 0.0077 µM.

Consider `CC(C)(C)OC(=O)N[C@@H](Cc1c[nH]c2ccccc12)C(=O)N[C@@H](CCCCNC(=O)c1ccc2cc(OS(=O)(=O)O)ccc2c1)C(=O)N[C@@H](CC(=O)O)C(=O)N[C@@H](Cc1ccccc1)C(N)=O` (Boc-WK(X13)DF-NH2), for which, in the experiment listed under Cavia porcellus [1], the response was half-maximal at 0.0035 µM (EC50). In the experiment listed under Cavia porcellus [2], this compound registered a Max of 49%. Also, the concentration for half-maximal inhibition (IC50) in experiment [3] amounted to 0.0029 µM.

On to `CC(C)(C)OC(=O)N[C@@H](Cc1c[nH]c2ccccc12)C(=O)N[C@@H](CCCCNC(=O)c1cc2cc(O)ccc2[nH]1)C(=O)N[C@@H](CC(=O)O)C(=O)N[C@@H](Cc1ccccc1)C(N)=O` (Boc-WK(X14)DF-NH2), for which a half-maximal response in the experiment listed under Cavia porcellus [1] (EC50) required 0.068 µM. The Max in the experiment filed under Cavia porcellus [2] is given as 23%. In experiment [3], this compound had an IC50 of 0.014 µM.

Turning to `CC(C)(C)OC(=O)N[C@@H](Cc1c[nH]c2ccccc12)C(=O)N[C@@H](CCCCNC(=O)/C=C\c1ccc(C(F)(F)F)cc1)C(=O)N[C@@H](CC(=O)O)C(=O)N[C@@H](Cc1ccccc1)C(N)=O` (Boc-WK(X15)DF-NH2), the midpoint of the response in the experiment listed under Cavia porcellus [1], the EC50, lay at 0.055 µM. The compound further returned a Max in the experiment filed under Cavia porcellus [2] of 60%. For the same compound, the half-inhibitory concentration (IC50) in experiment [3] came out at 0.22 µM.

As for `CC(C)(C)OC(=O)N[C@@H](Cc1c[nH]c2ccccc12)C(=O)N[C@@H](CCCCNC(=O)/C=C\c1ccccc1O)C(=O)N[C@@H](CC(=O)O)C(=O)N[C@@H](Cc1ccccc1)C(N)=O` (Boc-WK(X16)DF-NH2), the half-maximal effective concentration (EC50) in the experiment filed under Cavia porcellus [1] was determined as 0.21 µM. In addition, the Max in the experiment filed under Cavia porcellus [2] came to 54%. In addition, in experiment [3], the half-maximal inhibitory concentration (IC50) came out at 0.11 µM.

`COc1ccc(/C=C\C(=O)NCCCC[C@H](NC(=O)[C@H](Cc2c[nH]c3ccccc23)NC(=O)OC(C)(C)C)C(=O)N[C@@H](CC(=O)O)C(=O)N[C@@H](Cc2ccccc2)C(N)=O)c(OC)c1` (Boc-WK(X17)DF-NH2) registered an EC50 in the experiment filed under Cavia porcellus [1] of 0.014 µM. In the experiment filed under Cavia porcellus [2], the Max is 82%. For the same compound, the IC50 in experiment [3] was determined as 0.038 µM.

As to `CC(C)(C)OC(=O)N[C@@H](Cc1c[nH]c2ccccc12)C(=O)N[C@@H](CCCCNC(=O)c1cc2ccccc2[nH]1)C(=O)N[C@@H](CC(=O)O)C(=O)N[C@@H](Cc1ccccc1)C(N)=O` (Boc-WK(X18)DF-NH2), in the experiment listed under Cavia porcellus [1], the half-maximal effective concentration (EC50) was found to be 0.02 µM. Moreover, the Max in the experiment filed under Cavia porcellus [2] turned out to be 18%. In experiment [3], this compound showed a half-maximal inhibitory concentration (IC50) of 0.039 µM.

Compound `CC(C)(C)OC(=O)N[C@@H](Cc1c[nH]c2ccccc12)C(=O)N[C@@H](CCCCNC(=O)/C=C\c1ccccc1)C(=O)N[C@@H](CC(=O)O)C(=O)N[C@@H](Cc1ccccc1)C(N)=O` (Boc-WK(X19)DF-NH2) came in with an EC50 in the experiment listed under Cavia porcellus [1] of 0.03 µM. This compound showed a Max in the experiment listed under Cavia porcellus [2] of 52%. The compound further gave an IC50 in experiment [3] of 0.055 µM.

Turning to `CC(=O)Oc1ccc2cc(C(=O)NCCCC[C@H](NC(=O)[C@H](Cc3c[nH]c4ccccc34)NC(=O)OC(C)(C)C)C(=O)N[C@@H](CC(=O)O)C(=O)N[C@@H](Cc3ccccc3)C(N)=O)ccc2c1` (Boc-WK(X20)DF-NH2), the 50% effective concentration (EC50) in the experiment filed under Cavia porcellus [1] is 0.011 µM. In the experiment listed under Cavia porcellus [2], this compound gave a Max of 49%. In experiment [3], this compound returned an IC50 of 0.008 µM.

The compound `CC(=O)Oc1ccc2cc(C(=O)NCCCC[C@H](NC(=O)[C@H](Cc3c[nH]c4ccccc34)NC(=O)OC(C)(C)C)C(=O)N[C@@H](CC(=O)O)C(=O)N(C)[C@@H](Cc3ccccc3)C(N)=O)ccc2c1` (Boc-WK(X20)D[NMeF]-NH2) returned an EC50 in the experiment listed under Cavia porcellus [1] of 0.029 µM. The compound further came in with a Max in the experiment listed under Cavia porcellus [2] of 58%. The IC50 in experiment [3] came out at 0.0034 µM.

In turn, `CC(C)(C)OC(=O)N[C@@H](Cc1c[nH]c2ccccc12)C(=O)N[C@@H](CCCCNC(=O)/C=C\c1ccc(Br)cc1)C(=O)N[C@@H](CC(=O)O)C(=O)N[C@@H](Cc1ccccc1)C(N)=O` (Boc-WK(X21)DF-NH2) had a concentration for a half-maximal effect (EC50) in the experiment filed under Cavia porcellus [1] of 0.038 µM. In the experiment filed under Cavia porcellus [2], this compound returned a Max of 72%. The same compound displayed a concentration for half-maximal inhibition (IC50) in experiment [3] of 0.14 µM.

`CC(C)(C)OC(=O)N[C@@H](Cc1c[nH]c2ccccc12)C(=O)N[C@@H](CCCCNC(=O)CCc1cccc(OS(=O)(=O)O)c1)C(=O)N[C@@H](CC(=O)O)C(=O)N[C@@H](Cc1ccccc1)C(N)=O` (Boc-WK(X22)DF-NH2): the concentration for a half-maximal effect (EC50) in the experiment filed under Cavia porcellus [1] was 0.069 µM. This compound displayed a Max in the experiment filed under Cavia porcellus [2] of 50%. The concentration for half-maximal inhibition (IC50) in experiment [3] came out at 0.18 µM.

For the compound `CN(C(=O)[C@H](CC(=O)O)NC(=O)[C@H](CCCCNC(=O)/C=C/c1ccc(OS(=O)(=O)O)cc1)NC(=O)[C@H](Cc1c[nH]c2ccccc12)NC(=O)OC(C)(C)C)[C@@H](Cc1ccccc1)C(N)=O` (Boc-WK(X23)D[NMeF]-NH2), in the experiment listed under Cavia porcellus [1], the EC50 was determined as 0.0029 µM. Moreover, in the experiment listed under Cavia porcellus [2], the Max is 74%. In experiment [3], this compound gave a half-maximal inhibitory concentration (IC50) of 0.022 µM.

Consider `CC(C)(C)OC(=O)N[C@@H](Cc1c[nH]c2ccccc12)C(=O)N[C@@H](CCCCNC(=O)/C=C/c1c[nH]c2ccccc12)C(=O)N[C@@H](CC(=O)O)C(=O)N[C@@H](Cc1ccccc1)C(N)=O` (Boc-WK(X24)DF-NH2), for which the response in the experiment filed under Cavia porcellus [1] was half-maximal at 0.03 µM (EC50). For the same compound, in the experiment filed under Cavia porcellus [2], the Max is given as 55%. For the same compound, the 50% inhibitory concentration (IC50) in experiment [3] is 0.019 µM.

`COc1ccc(/C=C\C(=O)NCCCC[C@H](NC(=O)[C@H](Cc2c[nH]c3ccccc23)NC(=O)OC(C)(C)C)C(=O)N[C@@H](CC(=O)O)C(=O)N[C@@H](Cc2ccccc2)C(N)=O)cc1` (Boc-WK(X25)DF-NH2): the EC50 in the experiment filed under Cavia porcellus [1] was determined as 0.02 µM. This compound also had a Max in the experiment filed under Cavia porcellus [2] of 72%. This compound showed a half-maximal inhibitory concentration (IC50) in experiment [3] of 0.03 µM.

In turn, `CC(C)(C)OC(=O)N[C@@H](Cc1c[nH]c2ccccc12)C(=O)N[C@@H](CCCCNC(=O)/C=C\c1ccc(Cl)c(Cl)c1)C(=O)N[C@@H](CC(=O)O)C(=O)N[C@@H](Cc1ccccc1)C(N)=O` (Boc-WK(X26)DF-NH2) gave an EC50 in the experiment filed under Cavia porcellus [1] of 0.046 µM. Also, the Max in the experiment listed under Cavia porcellus [2] came out at 62%. The half-maximal inhibitory concentration (IC50) in experiment [3] is 0.049 µM.
